# System: MDA-MB-231 human breast cancer cells
# Test: Cell proliferation assay (CellTiter-Glo, 72 hours treatment)
# Type: cell-based
# Conditions: Homo sapiens; MDA-MB-231 cells, 72 hours at 37° C., CellTiter-Glo; read-out: MDA-MB-231 cell proliferation assay (IC50)
# How it was run: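 MDA-MB-231 cells seeded at 2,500 cells/well, treated next day with compound or DMSO vehicle for 72 h at 37 °C. Proliferation read by CellTiter-Glo; IC50 from sigmoidal non-linear regression, binned as +++ (<100 nM), ++ (100–1000 nM), + (>1000 nM).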
row,SMILES,IC50
1,"COC(=O)C(C[C@H]1C(=O)[C@@]2(O)c3ncc(Cl)cc3O[C@@]2(c2ccc(Br)cc2)[C@@H]1c1ccccc1)C(=O)OC (racemic) [46F, Rac-dimethyl 2-[[(5aR,6S,7R,8aR)-5a-(4-bromophenyl)-3-chloro-8a-hydroxy-8-oxo-6-phenyl-6,7-dihydrocyclopenta[4,5]furo[1,2-b]pyridin-7-yl]methyl]propanedioate]",> 1000 nM
2,"COc1cncc2c1[C@]1(O)[C@H](O)[C@H](C(=O)N(C)CC(F)(F)F)[C@@H](c3ccccc3)[C@]1(c1ccc(Br)cc1)O2 (racemic) [88F, Rac-(4bS,5R,6R,7S,7aR)-7a-(4-bromophenyl)-4b,5-dihydroxy-4-methoxy-N-methyl-7-phenyl-N-(2,2,2-trifluoroethyl)-4b,6,7,7a-tetrahydro-5H-cyclopenta[4,5]furo[2,3-c]pyridine-6-carboxamide]",< 100 nM
3,"COc1nc(C#N)cc2c1[C@]1(O)[C@H](O)[C@H](CNC(C)(C)C)[C@@H](c3ccccc3)[C@]1(c1ccc(C#N)cc1)O2 (racemic) [155F, Rac-(5aR,6S,7S,8R,8aS)-7-((tert-butylamino)methyl)-5a-(4-cyanophenyl)-8,8a-dihydroxy-1-methoxy-6-phenyl-5a,7,8,8a-tetrahydro-6H-cyclopenta[4,5]furo[3,2-c]pyridine-3-carbonitrile]",100 to 1000 nM
4,"COC(=O)[C@@]12C[C@@H]1[C@@]1(O)c3ncc(Cl)cc3O[C@@]1(c1ccc(Br)cc1)[C@@H]2c1ccccc1 (racemic) [24F, rac-methyl (5aR,6R,6aS,7aS,7bR)-5a-(4-bromophenyl)-3-chloro-7b-hydroxy-6-phenyl-5a,7,7a,7b-tetrahydrocyclopropa[4′,5′]cyclopenta[1′,2′:4,5]furo[3,2-b]pyridine-6a(6H)-carboxylate]",> 1000 nM
5,"COC(=O)[C@@H]1[C@@H](c2ccccc2)[C@]2(c3ccc(C#N)cc3)Oc3cc(Cl)cnc3[C@]2(O)[C@H]1C#N (racemic) [50F, Rac-methyl (5aR,6S,7R,8R,8aR)-3-chloro-8-cyano-5a-(4-cyanophenyl)-8a-hydroxy-6-phenyl-5a,7,8,8a-tetrahydro-6H-cyclopenta[4,5]furo[3,2-b]pyridine-7-carboxylate]",100 to 1000 nM
6,"COc1cncc2c1[C@]1(O)[C@H](O)[C@H](S(=O)(=O)c3ccccn3)[C@@H](c3ccccc3)[C@]1(c1ccc(C#N)cc1)O2 (racemic) [119F, Rac-4-((4bS,5S,6R,7S,7aR)-4b,5-dihydroxy-4-methoxy-7-phenyl-6-(pyridin-2-ylsulfonyl)-4b,5,6,7-tetrahydro-7aH-cyclopenta[4,5]furo[2,3-c]pyridin-7a-yl)benzonitrile]",100 to 1000 nM
7,"COc1cncc2c1[C@]1(O)[C@@H](CNCC(F)F)[C@H](CO)[C@@H](c3ccccc3)[C@]1(c1ccc(Br)cc1)O2 (racemic) [181F, Rac-(4bR,5R,6R,7S,7aR)-7a-(4-bromophenyl)-5-(((2,2-difluoroethyl)amino)methyl)-6-(hydroxymethyl)-4-methoxy-7-phenyl-5,6,7,7a-tetrahydro-4bH-cyclopenta[4,5]furo[2,3-c]pyridin-4b-ol]",< 100 nM
8,"C#CC1C[C@@H](c2ccccc2)[C@]2(c3ccc(Br)cc3)Oc3cc(Cl)cnc3[C@]12O (mixture of isomers) [48F, Rac-(5aR,6S,8aR)-5a-(4-bromophenyl)-3-chloro-8-ethynyl-6-phenyl-5a,6,7,8-tetrahydro-8aH-cyclopenta[4,5]furo[3,2-b]pyridin-8a-ol]",> 1000 nM
9,"NC(=S)[C@H]1[C@@H](O)[C@@]2(O)c3ncc(Cl)cc3O[C@@]2(c2ccc(Br)cc2)[C@@H]1c1ccccc1 (racemic) [28F, Rac-(5aR,6S,7R,8R,8aS)-5a-(4-bromophenyl)-3-chloro-8,8a-dihydroxy-6-phenyl-5a,7,8,8a-tetrahydro-6H-cyclopenta[4,5]furo[3,2-b]pyridine-7-carbothioamide]",100 to 1000 nM
10,"CN(C)C(=O)[C@@H]1[C@@H](c2ccccc2)[C@]2(c3ccc(C#N)cc3)Oc3cc(Cl)cnc3[C@]2(O)[C@H]1C#N (racemic) [51F, Rac-(5aR,6S,7R,8R,8aR)-3-chloro-8-cyano-5a-(4-cyanophenyl)-8a-hydroxy-N,N-dimethyl-6-phenyl-5a,7,8,8a-tetrahydro-6H-cyclopenta[4,5]furo[3,2-b]pyridine-7-carboxamide]",100 to 1000 nM
11,"COc1nc(C#N)cc2c1[C@]1(O)[C@H](O)[C@H](CN3CCC3)[C@@H](c3ccccc3)[C@]1(c1ccc(C#N)cc1)O2 (single isomer, unassigned) [212F]",< 100 nM
12,"O[C@]12c3ncc(Cl)cc3O[C@@]1(c1ccc(Br)cc1)[C@H](c1ccccc1)C[C@@]21CCO1 (racemic) [38F, Rac-(5aR,6S,8R,8aS)-5a-(4-bromophenyl)-3-chloro-6-phenyl-6,7-dihydrospiro[cyclopenta[4,5]furo[3,2-b]pyridine-8,2′-oxetan]-8a(5aH)-ol]",> 1000 nM
13,"COc1cncc2c1[C@]1(O)[C@H](O)[C@H](CNC(C)(C)C)[C@@H](c3ccccc3)[C@]1(c1ccc(C#N)cc1)O2 (single isomer, unassigned) [290F]",100 to 1000 nM
14,"COc1cncc2c1[C@]1(O)[C@H](O)[C@H](S(=O)(=O)N3CCOCC3)[C@@H](c3ccccc3)[C@]1(c1ccc(C#N)cc1)O2 (single isomer, unassigned) [126F]",100 to 1000 nM
15,"COc1nc(C#N)cc2c1[C@]1(O)[C@@H](CN3CCOCC3)[C@H](CO)[C@@H](c3ccccc3)[C@]1(c1ccc(C#N)cc1)O2 (racemic) [200F, Rac-(5aR,6S,7R,8R,8aR)-5a-(4-cyanophenyl)-8a-hydroxy-7-(hydroxymethyl)-1-methoxy-8-(morpholinomethyl)-6-phenyl-5a,7,8,8a-tetrahydro-6H-cyclopenta[4,5]furo[3,2-c]pyridine-3-carbonitrile]",< 100 nM
16,"COc1cncc2c1[C@]1(O)[C@H](O)[C@H](CNC3COC3)[C@@H](c3ccccc3)[C@]1(c1ccc(C#N)cc1)O2 (racemic) [240F, Rac-4-((4bS,5R,6S,7S,7aR)-4b,5-dihydroxy-4-methoxy-6-((oxetan-3-ylamino)methyl)-7-phenyl-4b,5,6,7-tetrahydro-7aH-cyclopenta[4,5]furo[2,3-c]pyridin-7a-yl)benzonitrile]",100 to 1000 nM
17,"CC#CC1(O)C(C(=O)N(C)C)[C@@H](c2ccccc2)[C@]2(c3ccc(Br)cc3)Oc3cc(Cl)cnc3[C@]12O (mixture of isomers) [191F, Rac-(5aR,6S,8aS)-5a-(4-bromophenyl)-3-chloro-8,8a-dihydroxy-N,N-dimethyl-6-phenyl-8-(prop-1-yn-1-yl)-5a,7,8,8a-tetrahydro-6H-cyclopenta[4,5]furo[3,2-b]pyridine-7-carboxamide]",100 to 1000 nM
18,"COc1cncc2c1[C@]1(O)[C@H](O)[C@H](CN3CCC(F)(F)CC3)[C@@H](c3ccccc3)[C@]1(c1ccc(C#N)cc1)O2 (single isomer, unassigned) [113F]",100 to 1000 nM
19,"COc1nc(Cl)cc2c1[C@]1(O)[C@H](O)[C@H](C(=O)N3CCC34CC4(F)F)[C@@H](c3ccccc3)[C@]1(c1ccc(Br)cc1)O2 (mixture of isomers) [219F, Rac-((5aR,6S,7R,8R,8aS)-5a-(4-bromophenyl)-3-chloro-8,8a-dihydroxy-1-methoxy-6-phenyl-5a,7,8,8a-tetrahydro-6H-cyclopenta[4,5]furo[3,2-c]pyridin-7-yl)(1,1-difluoro-4-azaspiro[2.3]hexan-4-yl)methanone]",< 100 nM
20,"CN(C)C(=O)[C@H]1[C@@H](O)[C@@]2(O)c3n[nH]cc3O[C@@]2(c2ccc(C#N)cc2)[C@@H]1c1ccccc1 (racemic) [100F, rac-(4aR,5S,6R,7R,7aS)-4a-(4-cyanophenyl)-7,7a-dihydroxy-N,N-dimethyl-5-phenyl-2,4a,5,6,7,7a-hexahydrocyclopenta[4,5]furo[3,2-c]pyrazole-6-carboxamide]",> 1000 nM
21,"CN(C)C[C@H]1[C@@H](C#N)[C@@]2(O)c3ncc(Cl)cc3O[C@@]2(c2ccc(Br)cc2)[C@@H]1c1ccccc1 (racemic) [227F, Rac-(5aR,6S,7R,8S,8aR)-5a-(4-bromophenyl)-3-chloro-7-((dimethylamino)methyl)-8a-hydroxy-6-phenyl-5a,7,8,8a-tetrahydro-6H-cyclopenta[4,5]furo[3,2-b]pyridine-8-carbonitrile]",> 1000 nM
22,"COc1cncc2c1[C@]1(O)[C@H](O)[C@H](C(=O)N(C)C)[C@@H](c3ccccc3)[C@]1(c1ccc(Cl)cc1)O2 (racemic) [271F, rac-(4bS,5R,6R,7S,7aR)-7a-(4-chlorophenyl)-4b,5-dihydroxy-4-methoxy-N,N-dimethyl-7-phenyl-4b,6,7,7a-tetrahydro-5H-cyclopenta[4,5]furo[2,3-c]pyridine-6-carboxamide]",100 to 1000 nM
23,"CN(C)C[C@@H]1[C@@H](O)[C@@]2(O)c3ncc(Cl)cc3O[C@@]2(c2ccc(C(F)F)cc2)[C@@H]1c1ccccc1 (single isomer, unassigned) [108F]",100 to 1000 nM
24,"COc1cnc2c(c1)O[C@@]1(c3ccc(C#N)cc3)[C@H](c3ccccc3)[C@@H](C(=O)N(C)C)[C@@H](O)[C@@]21O (single isomer, unassigned) [6F]",100 to 1000 nM
25,"COc1cncc2c1[C@]1(O)[C@@H](CN(C)C)[C@H](CO)[C@@H](c3ccccc3)[C@]1(c1ccc(C#N)cc1)O2 (racemic) [206F, Rac-4-((4bR,5R,6R,7S,7aR)-5-((dimethylamino)methyl)-4b-hydroxy-6-(hydroxymethyl)-4-methoxy-7-phenyl-4b,5,6,7-tetrahydro-7aH-cyclopenta[4,5]furo[2,3-c]pyridin-7a-yl)benzonitrile]",< 100 nM
26,"CN(C)C(=O)[C@H]1[C@@H](O)[C@@]2(O)c3ccc(C#N)cc3S[C@@]2(c2ccc(C#N)cc2)[C@@H]1c1ccccc1 (racemic) [13F, Rac-(1R,2R,3S,3aR,8bS)-6-cyano-3a-(4-cyanophenyl)-1,8b-dihydroxy-N,N-dimethyl-3-phenyl-2,3,3a,8b-tetrahydro-1H-benzo[b]cyclopenta[d]thiophene-2-carboxamide]",> 1000 nM

# Reference: patent publication US10577378B2, “EIF4A-inhibiting compounds and methods related thereto” (eFFECTOR Therapeutics, Inc., priority 2015, dated 2020)
